Reference: patent publication US10442767B2 (priority 2012, dated 2019)

Key:
[1] = Parallel Artificial Membrane Permeability Assay (PAMPA); type: in vitro ADME
Description: In this experiment, the inventors included highly permeable verapamil and lowly permeable theophylline as controls.
Permeability studies were performed as previously described by Sugano, et al., 2011. A 96-well microplate (acceptor compartment) was filled with PBS containing 5% DMSO. A hydrophobic filter plate (donor compartment) was placed atop the buffer-filled plate and the filter surface was impregnated with 5 μL solution of porcine polar brain lipids (Avanti Lipids) in dodecane (1% w/v). 150 μL of the test compounds dissolved in PBS containing 5% DMSO (compound concentration 0.5 mM) was added to the donor compartment and covered. The only barrier between the two compartments was the artificial BBB membrane containing the porcine polar brain lipids. The whole system was incubated for several hours.

[2] = tested on: hypomyelinated optic nerves from Shiverer mice (shi^−/−); experiment: Compound action potential (CAP) of dissected hypomyelinated optic nerve; type: cell-based, mouse; conditions: Mus musculus; hypomyelinated Shiverer optic nerve, 22 °C, Hill fit; read-out: half-maximal effective concentration (EC50) in enhancing the CAP
Description: In order to determine if the drugs could also be effective in enhancing compound action potentials (CAP), the effects of these compounds on the CAP of hypomyelinated optic nerves from Shiverer mice (shi^−/−) and control mice (shi^+/−, shi^+/+) were tested. Shiverer mice lack compact myelin in the CNS due to a null mutation of the myelin basic protein gene (MBP).
optic nerves were dissected from 12-16 week old Shiverer (shi^−/−) and control mice (shi^+/− and shi^+/+). Mice were euthanized by CO2 overdose and the optic nerves were quickly dissected between the eyeball and the optic chiasm. The nerves were incubated for 30 min at 37° C. in oxygenated (95% O2, 5% CO2) aCSF solution (126 mM NaCl, 3 mM KCl, 2 mM MgSO4, 26 mM NaHCO3, 2 mMCaCl2, 10 mM dextrose, pH 7.5) before the experiment.
compound action potentials (CAP) from hypomyelinated nerves (Shiverer mice, shi^−/−) and myelinated nerves (litermate controls, shi^+/− and shi^+/+) were recorded using suction electrodes as described by Stys et al. Briefly, the dissected optic nerve was placed inside a chamber containing oxygenated (5% CO2, 95% O2) aCSF (300 μL) between two suction electrodes (stimulus and recording electrodes) forming a tight seal on each end. Two additional electrodes were placed in the bath for reference. A supramaximal pulse (250 mV, 20 μs) was applied at the stimulating end of the nerve. The resulting CAP was amplified from the recording electrode using a high impedance low-noise amplifier (EG&G Princeton Applied Research Corporation) and filtered and sampled at 10-100 kHz. […] After each measurement the chamber was washed for 5 min (flow 1 mL/min) with oxygenated aCSF. The study was conducted at 22.2±1.3° C. to allow for slower conduction and the temperature was monitored throughout the experiment. CAP recordings were acquired with a SBC6711 board (Innovative Integration) controlled by in-house written software. Analysis of the traces was done using an in-house software. The half-maximal effective concentration (EC50) for each drug was calculated by plotting the final over initial amplitude vs. concentration and fitted to the Hill equation using Origin.
(§1) The Hill equation used to fit the data from the voltage-clamp and the optic nerve experiments was as follows: y=y0+(yf−y0)*x^n/(k^n+x^n); where n refers to the Hill coefficient (typically 1±0.1) and k refers to EC50 or IC50. y0 and yf refers to the origin and final ordinate values and were fixed at 1±0.1 or 0±0.1 depending on the experiment. EC50=10^<log EC50>; where <log EC50>=average of log EC50 values from all experiments with the same drug. 95% C.I.=[Upper Limit . . . Lower Limit]; where U.L.=10^(log EC50+s.d.) and L.L.=10^(log EC50−s.d.). The half-life (t1/2) in the stability and pharmacokinetic experiments was calculated by fitting the data to the equation Ct=C0*exp(−k*t) where C0=initial concentration, Ct=concentration at time t, and k=ln 2/t1/2. Student t-test was used to compare results and P<0.05 was considered significant.

Stability in microsomes = type: in vitro ADME, CD1 mouse; conditions: mouse liver microsomes
Description: The stability of these drugs in mouse plasma and mouse liver microsomes was also tested. Liver microsomes contain large amounts of cytochrome P450 and can be used to estimate the metabolic stability of drugs.
study compounds were incubated at initial concentration of 1 μM with liver microsomes from CD1 mouse (0.04 mg/mL) in PBS in the presence or absence of enzyme cofactors (1.3 mM NADP^+, 3.3 mM MgCl2, 3.3 mM G6P and 1 U/ml G6PDH, 1 mM UDPGA and 4.7 μg/ml Alamethicin). After t=0, 20, 40 and 60 min, a sample was removed and the reaction was stopped by adding 1 volume of acetonitrile. The loss of compound was determined by LC-MS analysis comparing the amount of compound in the sample to the respective reference samples (without cofactors). To ensure that the assay is reliable, Propanolol and Verapamil were included as control compounds. […]
as §1, with “EC50=10^<log EC50>; where <log EC50>=average of log EC50 values from all experiments with the same drug. 95% C.I.=[Upper Limit . . . Lower Limit]; where U.L.=10^(log EC50+s.d.) and L.L.=10^(log EC50−s.d.).” left out, “Student t-test was used to compare results and P<0.05 was considered significant.” left out

**Q.** Which results are given for `Nc1ccncc1F` [3-F-4-AP, 3-fluoro-4-aminopyridine]?
**A.** times more permeable than 4-AP [1]: 6.6 times; Pe: permeability coefficient across artificial membrane ([1]; porcine polar brain lipids, 0.5 mM, 16 h, n=3): 1.56 ± 0.06 ×10⁻⁶ cm/s; EC50 [2]: 96 µM; times more stable than 4-AP in microsomes (Stability in microsomes): 2.7 times
